One test concerns U2-OS. The test is described as follows: Inhibition of cell growth, MTT assay, U2-OS. Format: cell-based. The conditions noted are these: for IC50 / IC90: Homo sapiens, U2OS; for % inhibition of growth in parentheses after >25: concentration not given. How it is done:
(§1) The water-insoluble purple formazan product was then detected spectrophotometrically. […] Plates were incubated for four hours before addition of inhibitor compounds. Different concentrations of inhibitor compounds were added in 0.5% (v/v) dimethylsulfoxide (15 μL/well), and cells were incubated at 37° C. (5% CO2) for four to six days (depending on cell type). At the end of the incubation, MTT was added to a final concentration of 0.2 mg/mL, and cells were incubated for 4 hours more at 37° C. After centrifugation of the plates and removal of medium, the absorbance of the formazan (solubilized in dimethylsulfoxide) was measured at 540 nm.
Background: Tetrazolium dyes change colour on reduction, which living cells bring about.

Another test relates to HCT116. Put plainly: Inhibition of cell growth, MTT assay, HCT116. Format: cell-based, human. The conditions noted are these: Homo sapiens, HCT-116. The protocol: as §1
Test [1] concerns the target T1, complex of human CDK4 and cyclin D3 (Homo sapiens, UniProt P11802).
T1 construct: made in house; host or cells: insect cells, co-infected with baculovirus
Put plainly: Inhibition of CDK4/cyclin D retinoblastoma kinase activity (D-type cyclin is D3). The conditions noted are these: superscript a: D-type cyclin is D3; apparent Ki; read-out: Ki CDK 4/D. Format: biochemical. The gist of the method:
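Apparent Ki derived by fitting background-corrected activity to competitive (or, for tight binders, competitive tight-binding) equations with measured ATP Km. Rb phosphorylation by radiolabelled ATP was measured at 30°C, 20 min standard or 60 min at 5 nM complex for tight binders, via nitrocellulose capture and phosphorimager.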

For test [2], the target named is T2, human CDK1 (cdc2) and cyclin B (Homo sapiens, UniProt P06493).
T2 construct: purchased New England Biolabs (Beverly Mass.)
The test is described as follows: Inhibition of CDK1(cdc2)/cyclin B histone H1 kinase activity. The test is classed as biochemical. The note with it: read-out: Ki CDK 1/B. How it is done: Cyclin-dependent kinase activity was measured by quantifying the enzyme-catalyzed, time-dependent incorporation of radioactive phosphate from [^32P]ATP or [^33P]ATP into a protein substrate. Unless noted otherwise, assays were performed in 96-well plates in a total volume of 50 μL, in the presence of 10 mM HEPES (N-[2-hydroxyethyl]piperazine-N′-[2-ethanesulfonic acid]) (pH 7.4), 10 mM MgCl2, 25 μM adenosine triphosphate (ATP), 1 mg/mL ovalbumin, 5 μg/mL leupeptin, 1 mM dithiothreitol, 10 mM β-glycerophosphate, 0.1 mM sodium vanadate, 1 mM sodium fluoride, 2.5 mM ethylene glycol-bis(β-aminoethyl ether)-N,N,N′N′-tetraacetic acid (EGTA), 2% (v/v) dimethylsulfoxide, and 0.03-0.4 μCi [^32/33P]ATP per reaction. Reactions were initiated with enzyme, incubated at 30° C., and terminated after 20 minutes by the addition of ethylenediaminetetraacetic acid (EDTA) to 250 mM. The phosphorylated substrate was then captured on a nitrocellulose or phosphocellulose membrane using a 96-well filtration manifold, and unincorporated radioactivity was removed by repeated washing with 0.85% phosphoric acid. Radioactivity was quantified by exposing the dried membranes to a phosphorimager.
Apparent Ki values were measured by assaying enzyme activity in the presence of different inhibitor compound concentrations and subtracting the background radioactivity measured in the absence of enzyme. The kinetic parameters (kcat, Km for ATP) were measured for each enzyme under the usual assay conditions by determining the dependence of initial rates on ATP concentration. Inhibition data were fit to an equation for competitive inhibition using Kaleidagraph (Synergy Software), or were fit to an equation for competitive tight-binding inhibition using the software KineTic (BioKin, Ltd.).
The complex of human CDK1 (cdc2) and cyclin B was purchased from New England Biolabs (Beverly Mass.). Alternatively, a CDK1/glutathione-S-transferase-cyclin B1 complex was purified using glutathione affinity chromatography from insect cells that had been co-infected with the corresponding baculovirus expression vectors. The assay was executed as described above at 30° C. using 2.5 units of cdc2/cyclin B, 10 μg Histone H1 protein, and 0.1-0.3 μCi [^32/33P]ATP per assay. Phosphorylated histone substrate was captured by microfiltration on a phosphocellulose P81 membrane and quantified using a phosphorimager as described above. Ki values were measured using the described curve-fitting programs.

The next test addresses T3, CDK2/cyclin A (Homo sapiens, UniProt P24941).
T3 construct: made in house; host or cells: CDK2: insect cells (baculovirus); cyclin A: E. coli, then limited proteolysis
Put plainly: Inhibition of CDK2/cyclin A retinoblastoma kinase activity. The conditions noted are these: read-out: Ki CDK 2/A. The test is classed as biochemical. The gist of the method: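 Baculovirus-expressed CDK2 with excess proteolyzed cyclin A (or purified complex), 150 nM or 5 nM, phosphorylating an Rb fragment with 25 μM [32/33P]ATP, pH 7.4, 30° C, 20 min. Filter-captured radioactivity by phosphorimager; apparent Ki from fits to competitive or tight-binding competitive inhibition using measured ATP Km.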

The subject of another test is Saos-2. The test is described as follows: Inhibition of cell growth, MTT assay, Saos-2. Format: cell-based. The conditions noted are these: Saos-2, MTT assay; for IC50 / IC90: Homo sapiens; for % inhibition of growth in parentheses after >25: concentration not given. The protocol:
as §1

What is called IC50 is the concentration needed to halve the response being measured. Higher therefore signals weaker potency in that assay. Broadly, the IC90 is the concentration at which the effect reaches the 90% level.

T2 sequence (P06493 whole entry): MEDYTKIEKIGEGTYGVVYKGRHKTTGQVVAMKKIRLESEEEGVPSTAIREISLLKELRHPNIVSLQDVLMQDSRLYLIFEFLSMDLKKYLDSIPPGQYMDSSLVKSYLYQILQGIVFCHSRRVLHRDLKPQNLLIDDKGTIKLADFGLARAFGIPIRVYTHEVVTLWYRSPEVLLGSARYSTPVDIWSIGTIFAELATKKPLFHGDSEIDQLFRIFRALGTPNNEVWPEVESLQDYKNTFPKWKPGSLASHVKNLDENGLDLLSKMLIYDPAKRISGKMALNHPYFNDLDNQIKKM
T2 sequence (P14635 whole entry partner): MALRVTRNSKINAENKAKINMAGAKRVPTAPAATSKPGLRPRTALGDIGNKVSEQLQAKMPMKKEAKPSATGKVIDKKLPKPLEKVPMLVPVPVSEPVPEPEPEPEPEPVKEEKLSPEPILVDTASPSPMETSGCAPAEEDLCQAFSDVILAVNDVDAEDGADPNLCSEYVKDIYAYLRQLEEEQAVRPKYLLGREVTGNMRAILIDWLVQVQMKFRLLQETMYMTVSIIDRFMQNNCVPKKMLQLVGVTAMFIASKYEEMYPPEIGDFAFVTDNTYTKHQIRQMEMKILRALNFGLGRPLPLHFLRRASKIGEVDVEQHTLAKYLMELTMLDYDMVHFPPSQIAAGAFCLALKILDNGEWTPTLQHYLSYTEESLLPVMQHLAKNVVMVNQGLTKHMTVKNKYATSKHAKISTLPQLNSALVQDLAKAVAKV
T1 sequence (P11802 whole entry): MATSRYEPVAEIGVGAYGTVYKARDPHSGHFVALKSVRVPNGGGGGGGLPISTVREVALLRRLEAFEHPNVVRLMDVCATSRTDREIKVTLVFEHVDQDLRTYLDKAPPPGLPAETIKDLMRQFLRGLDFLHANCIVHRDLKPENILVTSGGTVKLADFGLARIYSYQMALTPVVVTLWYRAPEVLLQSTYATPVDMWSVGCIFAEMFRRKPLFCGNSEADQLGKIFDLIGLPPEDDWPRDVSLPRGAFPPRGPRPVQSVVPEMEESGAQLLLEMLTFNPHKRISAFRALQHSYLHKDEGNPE
T1 sequence (P30281 whole entry partner): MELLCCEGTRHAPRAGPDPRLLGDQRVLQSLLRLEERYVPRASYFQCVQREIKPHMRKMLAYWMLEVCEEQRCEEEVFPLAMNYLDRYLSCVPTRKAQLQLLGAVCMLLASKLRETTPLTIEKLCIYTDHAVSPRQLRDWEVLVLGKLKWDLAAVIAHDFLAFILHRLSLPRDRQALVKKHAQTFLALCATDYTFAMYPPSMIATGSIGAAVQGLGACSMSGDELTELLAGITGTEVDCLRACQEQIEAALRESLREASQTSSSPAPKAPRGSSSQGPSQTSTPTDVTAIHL

In the case of `CC(=O)c1ccc(Nc2nc(N)c(C(=O)c3ccccc3[N+](=O)[O-])s2)cc1` [C(24), 1-{4-[4-Amino-5-(2-nitro-benzoyl)-thiazol-2-ylamino]-phenyl}-ethanone], the results for the IC50 with U2-OS, with HCT116 and with Saos-2 were 1.9 µM, 0.7 µM and 1.4 µM, respectively. Besides, the figures for the IC90 with U2-OS, in the test with HCT116 and with Saos-2 were 3 µM, 1.5 µM and 2.8 µM, respectively. Also, the results for the Ki (in test [1]; in test [2]; at CDK2/cyclin A) were 0.008 µM, 0.046 µM and 0.248 µM, respectively.

As for `Nc1nc(Nc2ccc3nc[nH]c3c2)sc1C(=O)c1c(Cl)cc(C(F)(F)F)cc1Cl` [C(37), [4-Amino-2-(1H-benzoimidazol-6-ylamino)-thiazol-5-yl]-(2,6-dichloro-4-trifluoromethyl-phenyl)-methanone], the IC50 amounted to 16 µM in the test on U2-OS, 10 µM with HCT116 and 14 µM in the test on Saos-2. The IC90 with U2-OS was over 25 µM; with HCT116, 25 µM; in the test on Saos-2, over 25 µM. Moreover, the “% inhibition of growth in parentheses after >25” value (“% inhibition of growth” below) was “(80%)” with U2-OS and “(70%)” in the test on Saos-2. The Ki was 0.007 µM in test [1], 0.233 µM in test [2] and 0.31 µM at CDK2/cyclin A.

On to `Cc1ccsc1C(=O)c1sc(Nc2ccc(C(=O)C3COC(=O)[C@H]3N)cc2)nc1N` (stereo partly drawn) [C(45), trans-3RS-Amino-4RS-{4-[4-amino-5-(3-methyl-thiophene-2-carbonyl)-thiazol-2-ylamino]-benzoyl}-dihydro-furan-2-one], for which the IC50 in the test with U2-OS came out at 5.5 µM; with HCT116, 2 µM; with Saos-2, 2 µM. Further, the IC90 worked out at 12 µM with U2-OS, 8 µM with HCT116 and 10 µM with Saos-2. For the same compound, the values for the Ki (in test [1]; in test [2]; on CDK2/cyclin A) were 0.051 µM, 0.249 µM and 0.103 µM, respectively.

Turning to `Cc1c(C(=O)c2sc(Nc3ccc(S(N)(=O)=O)cc3)nc2N)sc2ccccc12` [C(49), 4-[4-Amino-5-(3-methyl-benzo[b]thiophene-2-carbonyl)-thiazol-2-ylamino]-benzenesulfonamide], the figures for the IC50 with U2-OS, with HCT116 and in the test on Saos-2 were 14 µM, 5.6 µM and 4 µM, respectively. Besides, the 90% effect concentration (IC90) with U2-OS stood at 22 µM; in the test on HCT116, 12 µM; in the test with Saos-2, 20 µM. Besides, the Ki in test [1] is 0.023 µM; in test [2], 0.034 µM; at CDK2/cyclin A, 0.01 µM.

Consider `Nc1nc(Nc2ccc(N3CCOCC3)cc2)sc1C(=O)c1c(Cl)cccc1Cl` [C(55), [4-Amino-2-(4-morpholin-4-yl-phenylamino)-thiazol-5-yl]-(2,6-dichloro-phenyl)-methanone], for which the IC50 in the test with U2-OS was determined as 18 µM; in the test on HCT116 it was 4.3 µM; in the test on Saos-2, 17 µM. The IC90 in the test on U2-OS was over 25 µM; in the test on HCT116 it was 17 µM; with Saos-2 it was over 25 µM. In addition, the results for the “% inhibition of growth” value with U2-OS and with Saos-2 were “(74%)” and 69%, respectively. Moreover, the Ki in test [1] was 0.0085 µM; in test [2], 0.504 µM; on CDK2/cyclin A it was 0.493 µM.

As to `Nc1nc(Nc2ccc3nc[nH]c3c2)sc1C(=O)c1c(Cl)cncc1Cl` [C(63), [4-Amino-2-(1H-benzoimidazol-5-yl-amino)-thiazol-5-yl]-(3,5-dichloro-pyridin-4-yl)-methanone], the IC50 in the test on U2-OS was 16 µM; with HCT116, 12 µM; with Saos-2, 9 µM. In addition, the IC90 with U2-OS was over 25 µM; in the test with HCT116, 22 µM; in the test with Saos-2 it was 20 µM. In addition, the “% inhibition of growth” value in the test with U2-OS came out at 84%. In addition, the figures for the Ki (in test [1]; in test [2]; at CDK2/cyclin A) were 0.017 µM, 0.133 µM and 0.2 µM, respectively.

For the compound `CN1CCN(c2ccc(Nc3nc(N)c(C(=O)c4c(Cl)cncc4Cl)s3)cc2)CC1` [C(70), {4-Amino-2-[4-(4-methyl-piperazin-1-yl)-phenylamino]-thiazol-5-yl}-(3,5-dichloro-pyridin-4-yl)-methanone], the IC50 came to 5 µM with U2-OS, 2.2 µM in the test with HCT116 and 5.8 µM with Saos-2. Besides, the IC90 was determined as 11 µM in the test with U2-OS, 5.9 µM with HCT116 and 12 µM with Saos-2. In addition, the figures for the Ki (in test [1]; in test [2]; on CDK2/cyclin A) were 0.0028 µM, 1.37 µM and 1.12 µM, respectively.

In the case of `CN1CCN(c2ccc(Nc3nc(N)c(C(=O)c4c(F)cccc4F)s3)cc2)CC1` [C(80), {4-Amino-2-[4-(4-methyl-piperazin-1-yl)-phenylamino]-thiazol-5-yl}-(2,6-difluoro-phenyl)-methanone], the Ki in test [2] worked out at 0.325 µM; on CDK2/cyclin A, 0.22 µM.

`CN1CCN(c2ccc(Nc3nc(N)c(C(=O)c4c(F)cccc4C(F)(F)F)s3)cc2)CC1` [C(100), {4-Amino-2-[4-(4-methyl-piperazin-1-yl)-phenylamino]-thiazol-5-yl}-(2-fluoro-6-trifluoromethyl-phenyl)-methanone]: the Ki in test [2] turned out to be 0.911 µM; on CDK2/cyclin A, 0.62 µM.

For the compound `CC(C)(C)OC(=O)N1CCN(c2ccc(Nc3nc(N)c(C(=O)c4c(F)cccc4F)s3)cc2)CC1` [C(101), 4-Amino-2-[4-(1-tert-butoxycarbonyl-piperazine-4-yl)-phenylamino]-thiazol-5-yl-(2,6-difluorophenyl)-methanone], the Ki is 0.103 µM in test [1], 0.32 µM in test [2] and 0.3 µM at CDK2/cyclin A.

As to `CNS(=O)(=O)c1ccc(Nc2nc(N)c(C(=O)c3c(F)cccc3F)s2)cc1` [C(108), 4-[4-Amino-5-(2,6-difluoro-benzoyl)-thiazol-2-ylamino]-N-methyl-benzenesulfonamide], the IC50 in the test with U2-OS amounted to 1.4 µM; in the test on Saos-2, 0.31 µM. For the same compound, the figures for the IC90 in the test with U2-OS and in the test with Saos-2 were 4.8 µM and 3.2 µM, respectively. The Ki in test [1] worked out at 0.023 µM; in test [2], 0.009 µM; at CDK2/cyclin A, 0.0068 µM.

For the compound `CN(C)S(=O)(=O)c1ccc(Nc2nc(N)c(C(=O)c3c(F)cccc3F)s2)cc1` [C(109), 4-[4-Amino-5-(2,6-difluoro-benzoyl)-thiazol-2-ylamino]-N,N-dimethyl-benzenesulfonamide], the IC50 came out at 4.7 µM with U2-OS and 1.5 µM with Saos-2. The values for the IC90 in the test with U2-OS and with Saos-2 were 19 µM and 14 µM, respectively. Further, the Ki amounted to 0.083 µM in test [1], 0.035 µM in test [2] and 0.028 µM at CDK2/cyclin A.

In the case of `CN1CCN(S(=O)(=O)c2ccc(Nc3nc(N)c(C(=O)c4c(F)cccc4F)s3)cc2)CC1` [C(116), {4-Amino-2-[4-(4-methyl-piperazine-1-sulfonyl)-phenylamino]-thiazol-5-yl}-(2,6-difluoro-phenyl)-methanone], the Ki in test [1] came out at 0.121 µM; in test [2], 0.077 µM; at CDK2/cyclin A, 0.12 µM.

With `Nc1nc(Nc2ccc(S(=O)(=O)NCC3CCNCC3)cc2)sc1C(=O)c1c(F)cccc1F` [J(4), 4-[4-Amino-5-(2,6-difluoro-benzoyl)-thiazol-2-ylamino]-N-piperidin-4-ylmethyl-benzenesulfonamide], the values for the Ki (in test [1]; in test [2]; on CDK2/cyclin A) were 0.0102 µM, 0.022 µM and 0.0135 µM, respectively.

Values taken from patent publication US6569878B1, “Substituted 4-amino-thiazol-2-yl compounds as cyclin-dependent kinase inhibitors” (Agouron Pharmaceuticals Inc., priority 1997, dated 2003).
